Laboratory results taken from ChEMBL document CHEMBL1201861, “Genomics of Drug Sensitity in Cancer screening data, Wellcome Trust Sanger Institute”.

Key:
[1] = system: MDA-MB-134-VI; experiment: cells; format: functional, cell-based, Homo sapiens; details: Homo sapiens, MDA-MB-134-VI
Description: SANGER: Inhibition of human MDA-MB-134-VI cell growth in a cell viability assay.

[2] = system: EFO-27; experiment: cells; format: functional, cell-based; details: Homo sapiens;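 also: growth inhibition of EFO-27 cells, read out with a cell viability assay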
Description: SANGER: Inhibition of human EFO-27 cell growth in a cell viability assay.

[3] = system: SW1463; experiment: cells; format: functional, cell-based; details: Homo sapiens;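 also: growth inhibition of SW1463 cells, determined with a cell viability assay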
Description: SANGER: Inhibition of human SW1463 cell growth in a cell viability assay.

[4] = system: BOKU; experiment: cells; format: functional, cell-based; details: Homo sapiens;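 also: growth inhibition of the human BOKU cell line, read out by a cell viability assay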
Description: SANGER: Inhibition of human BOKU cell growth in a cell viability assay.

[5] = system: H4; experiment: cells; format: functional, cell-based; details: Homo sapiens
Description: SANGER: Inhibition of human H4 cell growth in a cell viability assay.

[6] = system: S-117; experiment: cells; format: functional, cell-based; details: Homo sapiens
Description: SANGER: Inhibition of human S-117 cell growth in a cell viability assay.

[7] = system: C-33-A; experiment: cells; format: functional, cell-based; details: Homo sapiens;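 also: cell viability assay measuring growth inhibition of C-33-A cells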
Description: SANGER: Inhibition of human C-33-A cell growth in a cell viability assay.

[8] = system: NCI-H2052; experiment: cells; format: functional, cell-based; details: Homo sapiens;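 also: growth inhibition of NCI-H2052 cells, read out with a cell viability assay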
Description: SANGER: Inhibition of human NCI-H2052 cell growth in a cell viability assay.

[9] = system: NCI-H1694; experiment: cells; format: functional, cell-based, Homo sapiens; details: Homo sapiens, NCI-H1694;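 also: cell viability assay measuring inhibition of growth in human NCI-H1694 cells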
Description: SANGER: Inhibition of human NCI-H1694 cell growth in a cell viability assay.

[10] = system: SIMA; experiment: cells; format: functional, cell-based, Homo sapiens; details: Homo sapiens, SIMA;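 also: growth inhibition of SIMA cells, measured with a cell viability readout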
Description: SANGER: Inhibition of human SIMA cell growth in a cell viability assay.

[11] = system: NCI-H1693; experiment: cells; format: functional, cell-based; details: Homo sapiens;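 also: growth inhibition of the human cell line, read out with a cell viability assay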
Description: SANGER: Inhibition of human NCI-H1693 cell growth in a cell viability assay.

[12] = system: JIYOYE; experiment: cells; format: functional, cell-based, Homo sapiens; details: Homo sapiens, JIYOYE
Description: SANGER: Inhibition of human JiyoyeP-2003 cell growth in a cell viability assay.

[13] = system: NCI-H1573; experiment: cells; format: functional, cell-based; details: Homo sapiens;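 also: growth inhibition of NCI-H1573 cells, read out with a cell viability assay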
Description: SANGER: Inhibition of human NCI-H1573 cell growth in a cell viability assay.

[14] = system: NCI-H1993; experiment: cells; format: functional, cell-based; details: Homo sapiens;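 also: growth inhibition of the cancer cell line, assessed with a cell viability assay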
Description: SANGER: Inhibition of human NCI-H1993 cell growth in a cell viability assay.

[15] = system: CWR22R; experiment: cells; format: functional, cell-based; details: Homo sapiens, 22Rv1;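 also: growth inhibition of 22Rv1 cells, read out with a cell viability assay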
Description: SANGER: Inhibition of human 22RV1 cell growth in a cell viability assay.

[16] = system: MHH-CALL-2; experiment: cells; format: functional, cell-based, Homo sapiens; details: Homo sapiens, MHH-CALL-2;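 also: growth inhibition of the cell line, read out in a cell viability assay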
Description: SANGER: Inhibition of human MHH-CALL-2 cell growth in a cell viability assay.

[17] = system: LC-1F; experiment: cells; format: functional, cell-based, Homo sapiens; details: Homo sapiens, LC-1F;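 also: growth inhibition of human LC-1F cells, read out with a cell viability assay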
Description: SANGER: Inhibition of human LC-1F cell growth in a cell viability assay.

[18] = system: ASPC1; experiment: cells; format: functional, cell-based; details: Homo sapiens;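 also: growth inhibition of AsPC-1 cells, read out with a cell viability assay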
Description: SANGER: Inhibition of human AsPC-1 cell growth in a cell viability assay.

[19] = system: HCT-116; experiment: cells; format: functional, cell-based; details: Homo sapiens
Description: SANGER: Inhibition of human HCT-116 cell growth in a cell viability assay.

[20] = system: HMV-2 cell line; experiment: cells; format: functional, cell-based; details: Homo sapiens;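 also: growth inhibition of HMV-II cells, read out with a cell viability assay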
Description: SANGER: Inhibition of human HMV-II cell growth in a cell viability assay.

[21] = system: WM-115; experiment: cells; format: functional, cell-based; details: Homo sapiens
Description: SANGER: Inhibition of human WM-115 cell growth in a cell viability assay.

[22] = system: SW1783; experiment: cells; format: functional, cell-based; details: Homo sapiens
Description: SANGER: Inhibition of human SW1783 cell growth in a cell viability assay.

[23] = system: MDA-MB-361; experiment: cells; format: functional, cell-based; details: Homo sapiens
[24] = system: NCI-H1651; experiment: cells; format: functional, cell-based; details: Homo sapiens;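 also: Read-out is a cell viability assay, with IC50 expressing inhibition of NCI-H1651 cell growth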
Description: SANGER: Inhibition of human NCI-H1651 cell growth in a cell viability assay.

[25] = system: U-698-M; experiment: cells; format: functional, cell-based, Homo sapiens; details: Homo sapiens, U-698-M
Description: SANGER: Inhibition of human U-698-M cell growth in a cell viability assay.

[26] = system: 8505C; experiment: cells; format: functional, cell-based; details: Homo sapiens
Description: SANGER: Inhibition of human 8505C cell growth in a cell viability assay.

[27] = system: PA-1; experiment: cells; format: functional, cell-based; details: Homo sapiens;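 also: IC50 for suppression of PA-1 cell proliferation, determined with a cell viability read-out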
Description: SANGER: Inhibition of human PA-1 cell growth in a cell viability assay.

[28] = system: T-24; experiment: cells; format: functional, cell-based; details: Homo sapiens;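 also: growth inhibition of T-24 cells, read out with a cell viability assay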
Description: SANGER: Inhibition of human T-24 cell growth in a cell viability assay.

[29] = system: BC1 cell line; experiment: SANGER: Inhibition of human BC-1 cell growth in a cell viability assay.; format: functional, cell-based; details: Homo sapiens, BC1
[30] = system: HCC1937; experiment: cells; format: functional, cell-based; details: Homo sapiens;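 also: growth inhibition measured with a cell viability read-out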
Description: SANGER: Inhibition of human HCC1937 cell growth in a cell viability assay.

[31] = system: MKN-1; experiment: cells; format: functional, cell-based; details: Homo sapiens;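 also: growth inhibition of human MKN1 cells, read out by a cell viability measurement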
Description: SANGER: Inhibition of human MKN1 cell growth in a cell viability assay.

[32] = system: NCI-H1792; experiment: cells; format: functional, cell-based; details: Homo sapiens;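 also: growth inhibition of human NCI-H1792 cells, read out as cell viability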
Description: SANGER: Inhibition of human NCI-H1792 cell growth in a cell viability assay.

[33] = system: EFO-21; experiment: cells; format: functional, cell-based; details: Homo sapiens;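 also: growth inhibition of EFO-21 cells measured with a viability assay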
Description: SANGER: Inhibition of human EFO-21 cell growth in a cell viability assay.

[34] = system: HT1197; experiment: cells; format: functional, cell-based, HT-1197; details: Homo sapiens
Description: SANGER: Inhibition of human HT-1197 cell growth in a cell viability assay.

[35] = system: BEN; experiment: cells; format: functional, cell-based; details: Homo sapiens;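 also: growth inhibition of the BEN cell line, read out with a cell viability assay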
Description: SANGER: Inhibition of human BEN cell growth in a cell viability assay.

[36] = system: YKG-1; experiment: cells; format: functional, cell-based; details: Homo sapiens;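 also: cell growth inhibition, read out with a viability assay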
Description: SANGER: Inhibition of human YKG-1 cell growth in a cell viability assay.

[37] = system: SK-HEP1; experiment: cells; format: functional, cell-based, SK-HEP-1; details: Homo sapiens;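 also: cell viability readout used to quantify reduction in proliferation of human SK-HEP-1 cells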
Description: SANGER: Inhibition of human SK-HEP-1 cell growth in a cell viability assay.

[38] = system: OAW-42; experiment: cells; format: functional, cell-based; details: Homo sapiens;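 also: growth inhibition of OAW-42 cells, read out with a cell viability assay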
Description: SANGER: Inhibition of human OAW-42 cell growth in a cell viability assay.

[39] = system: SR; experiment: cells; format: functional, cell-based, Homo sapiens; details: Homo sapiens, SR
Description: SANGER: Inhibition of human SR cell growth in a cell viability assay.

[40] = system: SK-MM-2; experiment: cells; format: functional, cell-based, Homo sapiens; details: Homo sapiens, SK-MM-2;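 also: growth inhibition of human SK-MM-2 cells, read out with a cell viability assay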
Description: SANGER: Inhibition of human SK-MM-2 cell growth in a cell viability assay.

[41] = system: LB373-MEL-D; experiment: cells; format: functional, cell-based, Homo sapiens; details: Homo sapiens, LB373-MEL-D;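 also: growth inhibition of the cell line, read out in a cell viability assay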
Description: SANGER: Inhibition of human LB373-MEL-D cell growth in a cell viability assay.

[42] = system: SCC-3; experiment: cells; format: functional, cell-based, Homo sapiens; details: Homo sapiens, SCC-3;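 also: cell viability assay measuring inhibition of SCC-3 cell growth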
Description: SANGER: Inhibition of human SCC-3 cell growth in a cell viability assay.

[43] = system: AGS; experiment: cells; format: functional, cell-based; details: Homo sapiens;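 also: growth inhibition of AGS cells, determined with a cell viability assay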
Description: SANGER: Inhibition of human AGS cell growth in a cell viability assay.

[44] = system: SNU-C1; experiment: cells; format: functional, cell-based, Homo sapiens; details: Homo sapiens, SNU-C1;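 also: growth inhibition of SNU-C1 human cells, read out by a cell viability assay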
Description: SANGER: Inhibition of human SNU-C1 cell growth in a cell viability assay.

[45] = system: NCI-H1522; experiment: cells; format: functional, cell-based, Homo sapiens; details: Homo sapiens, NCI-H1522;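 also: growth inhibition of NCI-H1522 cells, read out with a cell viability assay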
Description: SANGER: Inhibition of human NCI-H1522 cell growth in a cell viability assay.

[46] = system: TALL-1; experiment: cells; format: functional, cell-based, Homo sapiens; details: Homo sapiens, TALL-1;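 also: growth inhibition of cultured human TALL-1 cells, read out by a cell viability assay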
Description: SANGER: Inhibition of human TALL-1 cell growth in a cell viability assay.

[47] = system: A-431; experiment: cells; format: functional, cell-based; details: Homo sapiens;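 also: growth inhibition of A-431 cells, determined with a cell viability read-out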
Description: SANGER: Inhibition of human A431 cell growth in a cell viability assay.

[48] = system: HuO-3N1; experiment: cells; format: functional, cell-based; details: Homo sapiens;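 also: cell viability readout used to measure how strongly compounds suppress proliferation of human HuO-3N1 cells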
Description: SANGER: Inhibition of human HuO-3N1 cell growth in a cell viability assay.

[49] = system: BPH-1; experiment: cells; format: functional, cell-based; details: Homo sapiens;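 also: cell viability assay measuring growth inhibition of human BPH-1 cells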
Description: SANGER: Inhibition of human BPH-1 cell growth in a cell viability assay.

[50] = system: CAL-85-1; experiment: cells; format: functional, cell-based; details: Homo sapiens;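 also: growth inhibition of human CAL-85-1 cells, read out with a cell viability assay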
Description: SANGER: Inhibition of human CAL-85-1 cell growth in a cell viability assay.

[51] = system: HC-1; experiment: cells; format: functional, cell-based, Homo sapiens; details: Homo sapiens, HC-1;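 also: growth inhibition of HC-1 cells measured by a cell viability assay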
Description: SANGER: Inhibition of human HC-1 cell growth in a cell viability assay.

[52] = system: A204; experiment: cells; format: functional, cell-based; details: Homo sapiens;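 also: growth inhibition of human A204 cells, read out with a cell viability assay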
Description: SANGER: Inhibition of human A204 cell growth in a cell viability assay.

[53] = system: SN12C; experiment: cells; format: functional, cell-based; details: Homo sapiens;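 also: growth inhibition of human SN12C cells, measured by a cell viability assay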
Description: SANGER: Inhibition of human SN12C cell growth in a cell viability assay.

[54] = system: HT-1080; experiment: cells; format: functional, cell-based; details: Homo sapiens
Description: SANGER: Inhibition of human HT-1080 cell growth in a cell viability assay.

[55] = system: SW1573; experiment: cells; format: functional, cell-based; details: Homo sapiens;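 also: growth inhibition of SW1573 cells, read out with a cell viability assay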
Description: SANGER: Inhibition of human SW1573 cell growth in a cell viability assay.

[56] = system: 769-P; experiment: cells; format: functional, cell-based; details: Homo sapiens
Description: SANGER: Inhibition of human 769-P cell growth in a cell viability assay.

[57] = system: Hs-578T; experiment: cells; format: functional, cell-based; details: Homo sapiens
Description: SANGER: Inhibition of human Hs-578-T cell growth in a cell viability assay.

[58] = system: LN-405; experiment: cells; format: functional, cell-based; details: Homo sapiens
Description: SANGER: Inhibition of human LN-405 cell growth in a cell viability assay.

C/C(=C\c1csc(C)n1)[C@@H]1C[C@@H]2O[C@]2(C)CCC[C@H](C)[C@H](O)[C@@H](C)C(=O)C(C)(C)[C@@H](O)CC(=O)O1 [PATUPILONE]
IC50 [1]: > 32 nM
IC50 [2]: 1.69 nM
IC50 [3]: > 32 nM
IC50 [4]: > 32 nM
IC50 [5]: 0.975 nM
IC50 [6]: > 32 nM
IC50 [7]: 3.27 nM
IC50 [8]: > 32 nM
IC50 [9]: > 32 nM
IC50 [10]: 19.1 nM
IC50 [11]: > 32 nM
IC50 [12]: 7.81 nM
IC50 [13]: 6.42 nM
IC50 [14]: > 32 nM
IC50 [15]: 8.41 nM
IC50 [16]: > 32 nM
IC50 [17]: > 32 nM
IC50 [18]: > 32 nM
IC50 [19]: 4.69 nM
IC50 [20]: 0.394 nM
IC50 [21]: > 32 nM
IC50 [22]: 1.48 nM
IC50 [23]: 16.5 nM
IC50 [24]: 3.71 nM
IC50 [25]: 7.76 nM
IC50 [26]: 0.451 nM
IC50 [27]: 0.174 nM
IC50 [28]: 20.6 nM
IC50 [29]: 1.99 nM
IC50 [30]: > 32 nM
IC50 [31]: 2.65 nM
IC50 [32]: 8.28 nM
IC50 [33]: 9.82 nM
IC50 [34]: > 32 nM
IC50 [35]: 20.6 nM
IC50 [36]: 1.24 nM
IC50 [37]: 1.11 nM
IC50 [38]: 2.18 nM
IC50 [39]: 3.65 nM
IC50 [40]: 17.3 nM
IC50 [41]: 18.1 nM
IC50 [42]: > 32 nM
IC50 [43]: 2.58 nM
IC50 [44]: > 32 nM
IC50 [45]: > 32 nM
IC50 [46]: > 32 nM
IC50 [47]: < 0.125 nM
IC50 [48]: > 32 nM
IC50 [49]: 0.521 nM
IC50 [50]: 0.662 nM
IC50 [51]: 3.98 nM
IC50 [52]: 3.12 nM
IC50 [53]: 9.39 nM
IC50 [54]: 0.842 nM
IC50 [55]: 14.6 nM
IC50 [56]: 0.753 nM
IC50 [57]: > 32 nM
IC50 [58]: > 32 nM
